Test results published in patent US20260184669A1, “LIPID COMPOUND AND COMPOSITION FOR DELIVERY OF ACTIVE SUBSTANCE” (KOREA RESEARCH INSTIUTE OF BIOSCIENCE AND BIOTECHNOLOGY, priority 2022, published 2026).

Tests used:
[1] = Size, polydispersity index and surface charge of mRNA-LNP (Malvern Zetasizer Nano ZS90); type: physicochemical
How it was run: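 Dynamic/electrophoretic light scattering of LNPs diluted in PBS to a final mRNA concentration of 1 μg/mL. Readouts were particle size, PDI and surface charge.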

[2] = test system: CCL3 mRNA level in HEK-293T cells

## CCCCC/C=C\C/C=C\CCCCCCCCC(CCCCCCCC/C=C\C/C=C\CCCCC)OC(=O)CCCN(C)C [MC3, DLin-MC3-DMA, reference compound]
[1]; mRNA-LNP made with the ionizable lipid at its optimal formulation (Table 2)
  PDI: 0.174
[1]; mRNA-LNP made with the ionizable lipid at its optimal formulation (Table 2), diluted with PBS to 1 μg/mL mRNA
  size (nm) Number: 93 nm
[1]; surface charge of mRNA-LNP made with the ionizable lipid at its optimal formulation (Table 2)
  Zeta (mV): −2.65 mV
[2]
  CCL3 Average: 1.86
